Consider three molecules from patent US11969401B2, “Compositions and methods for treating or limiting development of age-related macular degeneration” (Arizona Board of Regents on Behalf of The University of …, priority 2019, dated 2024).

The structures appear in SMILES notation.

The test system of this test is retinal pigment epithelium (RPE) cells. Nature of the test: Circadian patterns of VEGF secretion by perfused RPE monolayers (ELISA, Cosinor fit). It counts as cell-based. As to conditions: alternating 12-hour intervals, conclusion in words. As for the experimental part: The purpose of this study was to test whether retinal pigment epithelium (RPE) cells express vascular endothelial growth factor (VEGF) in a circadian manner. We tested the hypothesis that 12 hour alternating intervals of dopamine then melatonin combined with L-DOPA would induce RPE cells into a circadian rhythm that controlled VEGF expression. Methods: RPE monolayers were produced on snap-well filters, which were maintained in static culture conditions for at least six months, during which time they became pigmented and well differentiated. […] A baseline of VEGF secretion was established over a 3-week period. After the baseline was established, the cells were perfused with media containing 1 ? M dopamine for 12 hours, then media containing 1 ? M melatonin plus 1 ? M L-DOPA for the next 12 hours. […] Initiation of the next drug dilutes the previous over 12 hours while simultaneously ramping up the new drug. Cells were maintained in this circadian rhythm for at least three cycles. […] The amount of VEGF was plotted against the time of perfusion and fitted using the Cosinor method to find a length of circadian cycle and corresponding p-value for statistical analysis.
On the technique in general: An ELISA detects its analyte on a solid surface through an enzyme-linked reagent.
On to `N[C@@H](Cc1ccc(O)c(O)c1)C(=O)O` [L-DOPA, 2-amino-3-(3,4-dihydroxyphenyl)propanoic acid], for which the “effect on RPE VEGF secretion” value is “antagonize dopamine effects”.

Turning to `NCCc1ccc(O)c(O)c1` [dopamine], the “effect on RPE VEGF secretion” value is on record as “increase RPE VEGF secretion”.

Regarding `COc1ccc2[nH]cc(CCNC(C)=O)c2c1` [melatonin, Melatonin], the “effect on RPE VEGF secretion” value was “antagonize dopamine effects”.
